Data: US6759207B2, “Fluorogenic or fluorescent reporter molecules and their applications for whole-cell fluorescence screening assays for caspases and other enzymes and the use thereof” (Cytovia, Inc., priority 1997, dated 2004)
Values belong to the compound of their own block, whether it stands above or below them.

Assays:
[1] = target: T1, recombinant CPP32 (Homo sapiens, UniProt P42574); experiment: Fluorometric enzyme assay, cleavage of substrate by recombinant CPP32; type: biochemical; conditions: for CPP32 Vmax: 1-100 μM substrate, 37° C.; for efficiency as substrate for CPP32: summary of Table 4
T1 construct: made in house; host or cells: Sf9 insect cells, baculovirus vector
T1 sequence (P42574 29-175 limits assumed): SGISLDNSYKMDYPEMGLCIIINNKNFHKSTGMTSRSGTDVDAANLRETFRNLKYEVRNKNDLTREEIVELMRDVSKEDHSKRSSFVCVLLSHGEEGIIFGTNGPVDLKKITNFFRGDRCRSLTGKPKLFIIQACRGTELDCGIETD
T1 sequence (P42574 176-277 limits assumed): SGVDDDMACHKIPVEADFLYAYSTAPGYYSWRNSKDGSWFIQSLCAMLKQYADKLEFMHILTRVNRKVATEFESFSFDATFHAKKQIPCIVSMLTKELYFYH
Experimental: (§1) The activities of N-(Z-VD)-N′-acetyl-Rhodamine 110, N-(Z-VAD)-N′-acetyl-Rhodamine 110, N-(Z-DEVD)-N′-acetyl-Rhodamine 110 SEQ ID NO:5, N-(Z-YVAD)-N-acetyl-Rhodamine 110 SEQ ID NO:2, (Z-VAD)2-Rhodamine 110 and (Z-YVAD)2-Rhodamine 110 SEQ ID NO:2 as synthetic substrates for recombinant CPP32 and ICE were measured in a fluorometric enzyme assay. […] See, Webb, N. R. et al., “Expression of proteins using recombinant Baculovirus,” Techniques 2:173-188 (1990). Cleavage of the synthetic substrates by the enzyme results in a fluorescent signal which is read in a spectrofluorometer or in a fluorometric microtiter plate reader. Using this assay, the Km and Vmax values were determined for each substrate with either CPP32 or ICE.
(§2) CPP32 and ICE dependent substrate cleavage was measured using the following buffer conditions: 100 mM HEPES pH 7.5, with 10% sucrose, 1% CHAPS, 5 mM glutathione, and 1-100 μM test substrate. Nonspecific enzyme cleavage was determined with the use of the specific CPP32 and ICE inhibitors consisted of an oligomer with the sequence Asp-Glu-Val-Asp or Tyr-Val-Ala-Asp, respectively, with an aldehyde group conjugated to the C-terminus. The assay for enzyme activity was typically carried out at 37° C. for 60 minutes.

[2] = target: T2, recombinant ICE (Homo sapiens, UniProt P29466); experiment: Fluorometric enzyme assay, cleavage of substrate by recombinant ICE; type: biochemical; conditions: for ICE Vmax / Km: 1-100 μM substrate, 37° C.; for Km: NA = no activity observed at 1-100 μM substrate, 3 h incubation; for efficiency as substrate for ICE: summary of Table 4
T2 construct: made in house; host or cells: Sf9 insect cells, baculovirus vector
T2 sequence (P29466 120-297 limits assumed): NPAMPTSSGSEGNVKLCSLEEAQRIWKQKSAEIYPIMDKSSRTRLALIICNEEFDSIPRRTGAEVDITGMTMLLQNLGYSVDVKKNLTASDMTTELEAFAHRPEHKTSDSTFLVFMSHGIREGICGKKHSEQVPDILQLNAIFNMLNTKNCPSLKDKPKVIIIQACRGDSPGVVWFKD
T2 sequence (P29466 317-404 limits assumed): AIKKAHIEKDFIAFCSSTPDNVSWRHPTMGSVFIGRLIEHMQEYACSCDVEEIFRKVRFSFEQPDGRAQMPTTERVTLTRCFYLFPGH
Experimental: as §1, §2

[3] = Fluorescence of modified Rhodamine dyes (spectrometry and spectrofluorometry); type: physicochemical
Experimental: Modified Rhodamine dyes were evaluated using both conventional spectrometry and spectrofluorometry. For both types of analysis the dyes were dissolved in either methanol or 50 mM Tris at final dye concentrations ranging from 10 nM to 100 μM. An absorbance spectrum from wavelengths of 200 nm to 700 nm was determined for each dye using a Beckman DU-7000 spectrophotometer. The dyes all had absorbance peaks at around 470 to 480 nm. This wavelength was chosen as the fluorescence excitation wavelength and a full fluorescence emission spectrum was determined using a Hitachi F-2000 spectrofluorometer. For each dye, the emission peak was around 520 nm and the fluorescent output was measured under the conditions tested (see Table 1).

[4] = tested on: HL-60 cells; experiment: Uptake and retention of modified Rhodamine dyes by HL-60 cells (epifluorescence microscopy); type: cell-based; conditions: 10 μM or 50 μM dye; for staining of HL-60 cells: 37° C., serum-free Iscove's medium; for leakage of the dye into the medium / retention in cells: after washing
Experimental: HL-60 cells were placed in 5 ml of Iscove's medium (without serum or phenol-red) containing 10 μM or 50 μM N-octyloxycarbonyl-Rhodamine 110, N-decyloxycarbonyl-Rhodamine-110, N-dodecyloxycarbonyl-Rhodamine-110, N-hexyloxycarbonyl-Rhodamine-110, N-(ethylthio)carbonyl-Rhodamine 110 or Rhodamine 110. The cells were incubated for varying times at 37° C. in a CO2 incubator, recovered by centrifugation, and washed in 50 mL of ice-cold medium. The cells were re-centrifuged and the final pellet was resuspended in 50 μL of fresh medium. Aliquots of each cell suspension were placed in microslides and viewed on a Nikon inverted microscope with epifluorescent illumination.

Compound: CCOC(=O)Nc1ccc2c(c1)Oc1cc(N)ccc1C21OC(=O)c2ccccc21 (stereo not shown) [N-Ethoxycarbonyl-Rhodamine 110]
- Peak Emission Wavelength ([3]; Test Conc. 1 μM, Tris): 520 nm
- Peak Excitation Wavelength ([3]; Test Conc. 1 μM, Tris): 485 nm
- Signal Amplitude ([3]; Test Conc. 1 μM, Tris): 3070

Compound: CC(=O)Nc1ccc2c(c1)Oc1cc(NC(=O)C(CC(=O)O)NC(=O)C(NC(=O)OCc3ccccc3)C(C)C)ccc1C21OC(=O)c2ccccc21 (stereo not shown) [N-(Z-VD)-N′-Ac-Rhodamine 110, N-(Z-Val-Asp)-N′-acetyl-Rhodamine 110]
- CPP32 Vmax [1]: 11 nmol/min
- efficiency as substrate for CPP32 [1]: efficient substrate
- efficiency as substrate for ICE [2]: not for ICE

Compound: COCCOCCOCCOC(=O)Nc1ccc2c(c1)Oc1cc(N)ccc1C21OC(=O)c2ccccc21 (stereo not shown) [N-(2,5,8-Trioxadecyloxycarbonyl)-Rhodamine 110]
- Peak Emission Wavelength ([3]; Test Conc. 1 μM, Tris): 520 nm
- Peak Excitation Wavelength ([3]; Test Conc. 1 μM, Tris): 485 nm
- Signal Amplitude ([3]; Test Conc. 1 μM, Tris): 2841

Compound: CC(C)[C@H](NC(=O)[C@H](Cc1ccc(O)cc1)NC(=O)OCc1ccccc1)C(=O)N[C@@H](C)C(=O)N[C@@H](CC(=O)O)C(=O)Nc1ccc2c(c1)Oc1cc(NC(=O)[C@H](CC(=O)O)NC(=O)[C@H](C)NC(=O)[C@@H](NC(=O)[C@H](Cc3ccc(O)cc3)NC(=O)OCc3ccccc3)C(C)C)ccc1C21OC(=O)c2ccccc21 [(Z-YVAD)2-Rhodamine 110, (Z-Tyr-Val-Ala-Asp)2-Rhodamine 110]
- efficiency as substrate for CPP32 [1]: not for CPP32
- ICE Vmax [2]: 14 nmol/min
- Km [2]: 6 µM
- efficiency as substrate for ICE [2]: efficient substrates

Compound: CCCCCCSC(=O)Nc1ccc2c(c1)Oc1cc(N)ccc1C21OC(=O)c2ccccc21 (stereo not shown) [N-(Hexylthio)carbonyl-Rhodamine 110]
- Peak Emission Wavelength ([3]; Test Conc. 1 μM, MeOH): 530 nm
- Peak Excitation Wavelength ([3]; Test Conc. 1 μM, MeOH): 490 nm
- Signal Amplitude ([3]; Test Conc. 1 μM, MeOH): 650

Compound: Cl.N=c1ccc2c(-c3ccccc3C(=O)O)c3ccc(N)cc3oc-2c1 [Rhodamine 110, reference compound]
- staining of HL-60 cells [4]: low intensity of cellular staining
- leakage of the dye into the medium / retention in cells [4]: quickly leaked out of the cells
- Peak Emission Wavelength ([3]; Test Conc. 0.01 μM, Tris): 520 nm
- Peak Excitation Wavelength ([3]; Test Conc. 0.01 μM, Tris): 490 nm
- Signal Amplitude ([3]; Test Conc. 0.01 μM, Tris): 284

Compound: CN(C)C(=O)Nc1ccc2c(c1)Oc1cc(N)ccc1C21OC(=O)c2ccccc21 (stereo not shown) [N-Dimethylcarbamyl-Rhodamine-110, N-Dimethylcarbamyl-Rhodamine 110]
- Peak Emission Wavelength ([3]; Test Conc. 0.1 μM, Tris): 520 nm
- Peak Excitation Wavelength ([3]; Test Conc. 0.1 μM, Tris): 490 nm
- Signal Amplitude ([3]; Test Conc. 0.1 μM, Tris): 446

Compound: CCCCCCN(C)C(=O)Nc1ccc2c(c1)Oc1cc(N)ccc1C21OC(=O)c2ccccc21 (stereo not shown) [N-(N-Hexyl-N-methylcarbamyl)-Rhodamine 110]
- Peak Emission Wavelength ([3]; Test Conc. 1 μM, Tris): 520 nm
- Peak Excitation Wavelength ([3]; Test Conc. 1 μM, Tris): 470 nm
- Signal Amplitude ([3]; Test Conc. 1 μM, Tris): 1466

Compound: CCCCOCCOC(=O)Nc1ccc2c(c1)Oc1cc(N)ccc1C21OC(=O)c2ccccc21 (stereo not shown) [N-(2-Butoxyethoxy)carbonyl-Rhodamine 110, N-(2-Butoxyethoxycarbonyl)-Rhodamine 110]
- Peak Emission Wavelength ([3]; Test Conc. 1 μM, Tris): 520 nm
- Peak Excitation Wavelength ([3]; Test Conc. 1 μM, Tris): 470 nm
- Signal Amplitude ([3]; Test Conc. 1 μM, Tris): 2047

Compound: CCCCCCCCOC(=O)Nc1ccc2c(c1)Oc1cc(N)ccc1C21OC(=O)c2ccccc21 (stereo not shown) [N-Octyloxycarbonyl-Rhodamine 110]
- staining of HL-60 cells [4]: stained HL-60 cells intensely
- leakage of the dye into the medium / retention in cells [4]: almost no leakage of the dye into the medium
- Peak Emission Wavelength ([3]; Test Conc. 1 μM, MeOH): 520 nm
- Peak Excitation Wavelength ([3]; Test Conc. 1 μM, MeOH): 470 nm
- Signal Amplitude ([3]; Test Conc. 1 μM, MeOH): 850

Compound: CCCCCCCCCCCCOC(=O)Nc1ccc2c(c1)Oc1cc(N)ccc1C21OC(=O)c2ccccc21 (stereo not shown) [N-Dodecyloxycarbonyl-Rhodamine 110, N-Dodecyloxycarbonyl-Rhodamine-110]
- staining of HL-60 cells [4]: stained HL-60 cells intensely
- leakage of the dye into the medium / retention in cells [4]: almost no leakage of the dye into the medium
- Peak Emission Wavelength ([3]; Test Conc. 1 μM, MeOH): 520 nm
- Peak Excitation Wavelength ([3]; Test Conc. 1 μM, MeOH): 480 nm
- Signal Amplitude ([3]; Test Conc. 1 μM, MeOH): 640

Now from value to compound, other results behind:

- CPP32 Vmax [1]: 160 nmol/min
- efficiency as substrate for CPP32 [1]: efficient substrate
- ICE Vmax [2]: 9 nmol/min
- Km [2]: 12 µM
- efficiency as substrate for ICE [2]: efficient substrate
Compound: CC(=O)Nc1ccc2c(c1)Oc1cc(NC(=O)[C@H](CC(=O)O)NC(=O)[C@@H](NC(=O)[C@H](CCC(=O)O)NC(=O)[C@H](CC(=O)O)NC(=O)OCc3ccccc3)C(C)C)ccc1C21OC(=O)c2ccccc21 (stereo partly drawn) [N-(Z-DEVD)-N′-Ac-Rhodamine 110, N-(Z-Asp-Glu-Val-Asp)-N′-acetyl-Rhodamine 110]

- efficiency as substrate for CPP32 [1]: not for CPP32
- ICE Vmax [2]: 96 nmol/min
- Km [2]: 32 µM
- efficiency as substrate for ICE [2]: efficient substrates
Compound: CC(=O)Nc1ccc2c(c1)Oc1cc(NC(=O)[C@H](CC(=O)O)NC(=O)[C@H](C)NC(=O)[C@@H](NC(=O)[C@H](Cc3ccc(O)cc3)NC(=O)OCc3ccccc3)C(C)C)ccc1C21OC(=O)c2ccccc21 (stereo partly drawn) [N-(Z-YVAD)-N′-Ac-Rhodamine 110, N-(Z-Tyr-Val-Ala-Asp)-N′-acetyl-Rhodamine 110]

- Peak Emission Wavelength ([3]; Test Conc. 1 μM, MeOH): 520 nm
- Peak Excitation Wavelength ([3]; Test Conc. 1 μM, MeOH): 475 nm
- Signal Amplitude ([3]; Test Conc. 1 μM, MeOH): 827
Compound: CCCCCCCCCCOC(=O)Nc1ccc2c(c1)Oc1cc(N)ccc1C21OC(=O)c2ccccc21 (stereo not shown) [N-Decyloxycarbonyl-Rhodamine 110, N-Decyloxycarbonyl-Rhodamine-110]
- staining of HL-60 cells [4]: stained HL-60 cells intensely
- leakage of the dye into the medium / retention in cells [4]: almost no leakage of the dye into the medium

- Peak Emission Wavelength ([3]; Test Conc. 1 μM, MeOH): 520 nm
- Peak Excitation Wavelength ([3]; Test Conc. 1 μM, MeOH): 470 nm
- Signal Amplitude ([3]; Test Conc. 1 μM, MeOH): 471
Compound: CCCCCCCCSC(=O)Nc1ccc2c(c1)Oc1cc(N)ccc1C21OC(=O)c2ccccc21 (stereo not shown) [N-(Octylthio)carbonyl-Rhodamine 110, N-(Octylthio)carbonyl Rhodamine 110]

- Peak Emission Wavelength ([3]; Test Conc. 0.1 μM, MeOH): 520 nm
- Peak Excitation Wavelength ([3]; Test Conc. 0.1 μM, MeOH): 465 nm
- Signal Amplitude ([3]; Test Conc. 0.1 μM, MeOH): 109
Compound: CCCCCCOC(=O)Nc1ccc2c(c1)Oc1cc(N)ccc1C21OC(=O)c2ccccc21 (stereo not shown) [N-Hexyloxycarbonyl-Rhodamine 110, N-Hexyloxycarbonyl-Rhodamine-110]
- staining of HL-60 cells [4]: stained HL-60 cells less intensely
- leakage of the dye into the medium / retention in cells [4]: still well-retained

- Peak Emission Wavelength ([3]; Test Conc. 1 μM, Tris): 520 nm
- Peak Excitation Wavelength ([3]; Test Conc. 1 μM, Tris): 490 nm
- Signal Amplitude ([3]; Test Conc. 1 μM, Tris): 2430
Compound: CCSC(=O)Nc1ccc2c(c1)Oc1cc(N)ccc1C21OC(=O)c2ccccc21 (stereo not shown) [N-(Ethylthio)carbonyl-Rhodamine 110]
- staining of HL-60 cells [4]: moderate, but still easily detectable staining
- leakage of the dye into the medium / retention in cells [4]: slight leakage

- Peak Emission Wavelength ([3]; Test Conc. 0.1 μM, Tris): 520 nm
- Peak Excitation Wavelength ([3]; Test Conc. 0.1 μM, Tris): 470 nm
- Signal Amplitude ([3]; Test Conc. 0.1 μM, Tris): 254
Compound: COC(=O)Nc1ccc2c(c1)Oc1cc(N)ccc1C21OC(=O)c2ccccc21 (stereo not shown) [N-Methoxycarbonyl-Rhodamine 110]

- Peak Emission Wavelength ([3]; Test Conc. 1 μM, Tris): 520 nm
- Peak Excitation Wavelength ([3]; Test Conc. 1 μM, Tris): 485 nm
- Signal Amplitude ([3]; Test Conc. 1 μM, Tris): 988
Compound: CS(=O)(=O)Nc1ccc2c(c1)Oc1cc(N)ccc1C21OC(=O)c2ccccc21 (stereo not shown) [N-Methylsulfonyl-Rhodamine-110, N-Methylsulfonyl-Rhodamine 110]

- Peak Emission Wavelength ([3]; Test Conc. 1 μM, Tris): 530 nm
- Peak Excitation Wavelength ([3]; Test Conc. 1 μM, Tris): 470 nm
- Signal Amplitude ([3]; Test Conc. 1 μM, Tris): 644
Compound: N-Acetyl-Rhodamine 116
